Assay results published in patent US9452225B2, “GLP-1 prodrugs” (Novo Nordisk A/S, priority 2012, dated 2016).
Numbered stars: 1 amine (or outer) side, 2 acyl side, 3 side chain; on linkers, the order of the positions; unused ones are H or OH. Square brackets hold non-standard residues; d marks the D form. Side chains are listed from the residue outwards. Peptide text beside a SMILES is read from it. * marks the point of attachment. Lactoyl(3-(imidazol-4-yl)) = O=C([C@@H](O)Cc1c[nH]cn1)*; C18 diacid = O=C(O)CCCCCCCCCCCCCCCCC(=O)*; γGlu = O=C(O)[C@H](CCC(=O)[*:2])N[*:1]; AEEA = NCCOCCOCC(=O)O; Aib = CC(C)(N)C(=O)O

Experiments:
human GLP-1 receptor [1] = target: T1, human GLP-1 receptor (Homo sapiens, UniProt P43220); test: In vitro potency, CRE luciferase reporter gene assay in whole BHK cells; type: cell-based; conditions: 0% HSA
T1 construct: expressed in transfected cells; host or cells: BHK cells, clone FCW467-12A (parent line BHKTS13), membranes
T1 sequence (P43220 24-463): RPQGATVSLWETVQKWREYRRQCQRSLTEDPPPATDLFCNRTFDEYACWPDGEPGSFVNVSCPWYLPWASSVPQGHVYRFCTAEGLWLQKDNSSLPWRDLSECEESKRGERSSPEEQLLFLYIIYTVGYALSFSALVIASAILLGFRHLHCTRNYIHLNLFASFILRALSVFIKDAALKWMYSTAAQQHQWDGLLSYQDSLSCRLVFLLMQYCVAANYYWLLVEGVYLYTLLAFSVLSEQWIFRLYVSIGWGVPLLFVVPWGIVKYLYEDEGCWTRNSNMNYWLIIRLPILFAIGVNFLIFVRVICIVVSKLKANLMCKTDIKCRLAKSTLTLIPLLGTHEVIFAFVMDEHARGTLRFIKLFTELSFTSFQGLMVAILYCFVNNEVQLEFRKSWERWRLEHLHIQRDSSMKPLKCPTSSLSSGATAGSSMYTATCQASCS
Protocol: The purpose of this example is to test the activity, or potency, of, for example, the GLP-1 parent drugs of the prodrugs of the invention. The in vitro potency is the measure of human GLP-1 receptor activation in a whole cell assay. This method is an alternative to the method of Example 8.
In vitro potency was determined by measuring the response of the human GLP-1 receptor in a reporter gene assay. The assay was performed in a stably transfected BHK cell line that expresses the human GLP-1 receptor and contains the DNA for the cAMP response element (CRE) coupled to a promoter and the gene for firefly luciferase (CRE luciferase). When the human GLP-1 receptor is activated it results in the production of cAMP, which in turn results in the luciferase protein being expressed. When assay incubation is completed the luciferase substrate (luciferin) is added and the enzyme converts luciferin to oxyluciferin to produce bioluminescence. The luminescence is measured as the readout for the assay.
In order to test the binding of the derivatives to albumin, the assay may if desired be performed in the absence of serum albumin as well as in the presence of a considerably higher concentration of serum albumin (1.0% final assay concentration). […]
3) The cells were counted and adjusted to 5×10^3 cells/50 μl (1×10^5 cells/ml) in Assay Medium. […]

human GLP-1 receptor [2] = target: T1, human GLP-1 receptor; test: GLP-1 receptor binding, SPA displacement of 125I-GLP-1, low albumin; conditions: low albumin (0.005% HSA)
Protocol: The purpose of this experiment is to test the receptor binding activity of the GLP-1 parent drugs of the prodrugs of the invention. The receptor binding is a measure of affinity of a parent drug for the human GLP-1 receptor. The parent GLP-1 drugs of Examples B2.1, B2.2, B2.3, B2.4, and B2.5 were tested as described below.
The receptor binding of the GLP-1 drugs to the human GLP-1 receptor was measured in a competitive binding assay. In this type of assay a labelled ligand (in this case ^125I-GLP-1) is bound to the receptor. Each drug is added in a series of concentrations to isolated membranes containing the human GLP-1 receptor and displacement of the labelled ligand is monitored. The receptor binding is reported as the concentration at which half of the labelled ligand is displaced from the receptor, the IC50 value. […]
The cells were grown at 5% CO2 in DMEM, 10% fetal calf serum, 1% Pen/Strep (Penicillin/Streptomycin) and 1.0 mg/ml of the selection marker G418. […] The resulting pellet was re-suspended in buffer 2 and the protein concentration was determined. […]

Row | EC50 (human GLP-1 receptor [1]) [pM] | IC50 (human GLP-1 receptor [2]) [nM] | Compound
1 | 4 | 0.09 | CC[C@H](C)[C@H](NC(=O)[C@H](Cc1ccccc1)NC(=O)[C@H](CCCCNC(=O)COCCOCCNC(=O)COCCOCCNC(=O)CC[C@H](NC(=O)CCCCCCCCCCCCCCCCC(=O)O)C(=O)O)NC(=O)[C@H](CCCNC(=N)N)NC(=O)[C@H](C)NC(=O)[C@H](C)NC(=O)[C@H](CCC(N)=O)NC(=O)[C@H](CCC(=O)O)NC(=O)[C@H](CCC(=O)O)NC(=O)[C@H](CC(C)C)NC(=O)[C@H](Cc1ccc(O)cc1)NC(=O)[C@H](CO)NC(=O)[C@H](CO)NC(=O)[C@@H](NC(=O)[C@H](CC(=O)O)NC(=O)[C@H](CO)NC(=O)[C@@H](NC(=O)[C@H](Cc1ccccc1)NC(=O)[C@@H](NC(=O)CNC(=O)[C@H](CCC(=O)O)NC(=O)C(C)(C)NC(=O)[C@@H](O)Cc1c[nH]cn1)[C@@H](C)O)[C@@H](C)O)C(C)C)C(=O)N[C@@H](C)C(=O)N[C@@H](Cc1c[nH]c2ccccc12)C(=O)N[C@@H](CC(C)C)C(=O)N[C@H](C(=O)N[C@@H](CCCNC(=N)N)C(=O)NCC(=O)N[C@@H](CCCNC(=N)N)C(=O)NCC(=O)O)C(C)C [Example B2.4, N^ε27 [(S)-(22,40-dicarboxy-10,19,24-trioxo-3,6,12,15-tetraoxa-9,18,23-triazatetracontan-1-oyl)]-N^α8-{3-[(2S)-2-hydroxy-3-(1H-imidazol-4-yl)propanoyl}-Aib^8,Glu^22,Arg^26,Lys^27,Arg^34]-GLP-1-(8-37)-peptide] ({Lactoyl(3-(imidazol-4-yl))}-[Aib]EGTFTSDVSSYLEEQAARK([AEEA-AEEA-γGlu-C18 diacid])FIAWLVRGRG-OH; C-terminus assumed)
2 | 31 | 0.22 | CC[C@H](C)[C@H](NC(=O)[C@H](Cc1ccccc1)NC(=O)[C@H](CCC(=O)O)NC(=O)[C@H](CCCCNC(=O)COCCOCCNC(=O)COCCOCCNC(=O)CC[C@H](NC(=O)CCCCCCCCCCCCCCCCC(=O)O)C(=O)O)NC(=O)[C@H](C)NC(=O)[C@H](C)NC(=O)[C@H](CCCNC(=N)N)NC(=O)CNC(=O)[C@H](CCC(=O)O)NC(=O)[C@H](CC(C)C)NC(=O)[C@H](Cc1ccc(O)cc1)NC(=O)[C@H](CO)NC(=O)[C@H](CO)NC(=O)[C@@H](NC(=O)[C@H](CC(=O)O)NC(=O)[C@H](CO)NC(=O)[C@@H](NC(=O)[C@H](Cc1ccccc1)NC(=O)[C@@H](NC(=O)CNC(=O)[C@H](CCC(=O)O)NC(=O)C(C)(C)NC(=O)[C@@H](O)Cc1c[nH]cn1)[C@@H](C)O)[C@@H](C)O)C(C)C)C(=O)N[C@@H](C)C(=O)N[C@@H](Cc1c[nH]c2ccccc12)C(=O)N[C@@H](CC(C)C)C(=O)N[C@H](C(=O)N[C@@H](CCCNC(=N)N)C(=O)NCC(=O)N[C@@H](CCCNC(=N)N)C(=O)NCC(=O)O)C(C)C [Example B2.5, N^ε26 [(S)-(22,40-dicarboxy-10,19,24-trioxo-3,6,12,15-tetraoxa-9,18,23-triazatetracontan-1-oyl)]-N^α8-{3-[(2S)-2-hydroxy-3-(1H-imidazol-4-yl)propanoyl}-Aib^8,Arg^23,Arg^34]-GLP-1-(8-37)-peptide] ({Lactoyl(3-(imidazol-4-yl))}-[Aib]EGTFTSDVSSYLEGRAAK([AEEA-AEEA-γGlu-C18 diacid])EFIAWLVRGRG-OH; C-terminus assumed)
